Experimental data as given in patent US20240116985A1, “STAPLED PEPTIDES AND METHODS THEREOF” (priority 2020, published 2024).
Like-named read-outs stand apart in the source and are kept apart here.

Experiments:
[1] = CHI Log D procedure; format: physicochemical; conditions: for CHI Log D: pH 7.4; for chromatographic logD: pH 7.4, CHI Log D
[2] = molecular target: T1, beta-catenin/TCF4 engagement (Homo sapiens, UniProt P35222); test: Nano-BRET target engagement assay (B-cat-Halo & TCF4-Luc in HEK293 cells); format: cell-based; conditions: for IC50: read-out: NanoBRET Abs IC50
T1 construct: expressed in transfected cells; host or cells: HEK293
T1 sequence (P35222 1-781): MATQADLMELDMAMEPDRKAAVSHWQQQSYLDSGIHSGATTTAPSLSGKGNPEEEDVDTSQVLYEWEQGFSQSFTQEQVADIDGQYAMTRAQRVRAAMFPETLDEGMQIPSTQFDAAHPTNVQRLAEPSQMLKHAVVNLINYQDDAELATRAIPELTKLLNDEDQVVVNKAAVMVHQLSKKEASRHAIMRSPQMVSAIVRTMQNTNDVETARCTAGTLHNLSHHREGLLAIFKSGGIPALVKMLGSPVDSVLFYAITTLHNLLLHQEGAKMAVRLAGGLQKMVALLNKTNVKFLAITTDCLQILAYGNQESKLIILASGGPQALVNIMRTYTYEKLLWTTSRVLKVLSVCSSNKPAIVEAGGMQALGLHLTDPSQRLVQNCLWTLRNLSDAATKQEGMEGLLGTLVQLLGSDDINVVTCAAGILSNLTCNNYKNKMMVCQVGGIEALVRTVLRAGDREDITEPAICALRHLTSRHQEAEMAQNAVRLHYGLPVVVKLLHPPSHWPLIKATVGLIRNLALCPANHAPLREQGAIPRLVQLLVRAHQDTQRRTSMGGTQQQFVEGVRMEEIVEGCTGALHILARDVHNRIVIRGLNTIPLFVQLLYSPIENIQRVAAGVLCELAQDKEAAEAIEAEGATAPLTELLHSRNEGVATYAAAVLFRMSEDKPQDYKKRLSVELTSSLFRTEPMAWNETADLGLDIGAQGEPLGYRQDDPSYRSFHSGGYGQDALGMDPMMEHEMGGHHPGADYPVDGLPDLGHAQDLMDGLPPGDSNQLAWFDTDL

[3] = molecular target: T2, full-length beta-Catenin (Uniprot ID P35222) (Homo sapiens, UniProt P35222); test: Fluorescence polarization IC50 (beta-catenin / 5FAM-TCF4 10-53 competition); format: binding
T2 construct: 10 nM full-length beta-Catenin (Uniprot ID P35222)
T2 sequence (P35222 1-781): T1 sequence (P35222 1-781)

[4] = fluorescence polarization, beta-catenin, read-out: FP EC50
[5] = fluorescence polarization, read-out: beta-Catenin FP IC50
[6] = Table E2-1, read-out: beta-Catenin FP IC50

SMILES	CHI Log D [1]	IC50 [2] [nM]	IC50 ([3]; read-out: beta-Catenin FP IC50) [nM]	IC50 [3, 5] [nM]	chromatographic logD [1]	other results
CC(=O)N1CCC[C@]12CC=CCCCC1(CCCC=CCCCCCC[C@@](C)(C(=O)N[C@@H](Cc3ccccc3Cl)C(=O)N[C@@H](Cc3csc4ccccc34)C(=O)N[C@@H](CCC(N)=O)C(N)=O)NC(=O)[C@H]([C@@H](C)O)NC(=O)[C@H](Cc3ccccc3)NC(=O)[C@H](C)NC(=O)[C@H](C)NC(=O)[C@H](CC(=O)O)NC(=O)[C@H](CC(=O)O)NC1=O)NC(=O)[C@H](CC(C)(C)C)NC(=O)[C@H](CC(=O)O)NC2=O (stereo partly drawn) [I-1086, Ac-PL3-Asp-Npg-B5-Asp-Asp-Ala-Ala-Phe-Thr-S8-2C1F-BztA-Gln-NH2]	2.709	10100	12	–	–	IC50 [3, 4]: 12 nM
CC(=O)N1CCC[C@]12CC=CCCCC1(CCCC=CCCCOC(=O)N3CC[C@@](C(=O)N[C@@H](Cc4ccsc4)C(=O)N[C@@H](Cc4csc5ccccc45)C(=O)N[C@@H](Cc4c[nH]cn4)C(N)=O)(C3)NC(=O)[C@H](CC(N)=O)NC(=O)[C@H](Cc3ccccc3)NC(=O)[C@H](C)NC(=O)[C@H](C)NC(=O)[C@H](CN(CC(=O)O)CC(F)(F)F)NC(=O)[C@H](CC(=O)O)NC1=O)NC(=O)[C@H](CC(C)(C)C)NC(=O)[C@H](CC(=O)O)NC2=O (stereo partly drawn) [I-770, Ac-PL3-Asp-Npg-B5-Asp-TfeGA-Ala-Ala-Phe-Asn-PyrS2-3Thi-BztA-His-NH2]	2.358	13700	5	–	–	IC50 ([2]; Abs IC50): 13700 nM
CC(=O)N1CCC[C@]12CC=CCCCC1(CCCC=CCCCOC(=O)N3CC[C@@](C(=O)N[C@@H](Cc4ccsc4)C(=O)N[C@@H](Cc4csc5ccccc45)C(=O)N[C@@H](Cc4c[nH]cn4)C(N)=O)(C3)NC(=O)[C@H](CCC(N)=O)NC(=O)[C@H](Cc3ccccc3)NC(=O)[C@H](C)NC(=O)[C@H](C)NC(=O)[C@H](CC(=O)O)NC(=O)[C@H](CC(=O)O)NC1=O)NC(=O)[C@H](CC(C)(C)C)NC(=O)[C@H](CC(=O)O)NC2=O (stereo partly drawn) [I-771, Ac-PL3-Asp-Npg-B5-Asp-Asp-Ala-Ala-Phe-Gln-PyrS2-3Thi-BztA-His-NH2]	2.031	37300	5	–	–	–
CC(=O)N1CCC[C@]12CC=CCCCC1(CCCC=CCCCCCC[C@@](C)(C(=O)N[C@@H](Cc3ccccc3)C(=O)N[C@@H](Cc3csc4ccccc34)C(=O)N[C@@H](CC(N)=O)C(N)=O)NC(=O)[C@H](CC(N)=O)NC(=O)[C@H](Cc3ccccc3)NC(=O)[C@H](C)NC(=O)[C@H](C)NC(=O)[C@H](CCC(=O)O)NC(=O)[C@H](CC(=O)O)NC1=O)NC(=O)[C@H](CC(C)C)NC(=O)[C@H](CC(=O)O)NC2=O (stereo partly drawn) [I-752, Ac-PL3-Asp-Leu-B5-Asp-Glu-Ala-Ala-Phe-Asn-S8-Phe-BztA-Asn-NH2]	2.419	–	–	16	–	IC50 ([2]; Abs IC50): 9900 nM; inhibition at 10 µM ([2]; HEK293, @ 10 uM, read-out: NanoBRET % inh @ 10 uM): 53%; IC50 ([2]; absolute IC50): 9900 nM; IC50 ([3]; read-out: FP EC50): 16 nM
COCCOCCOCCOCCC(=O)NCCCC[C@@H]1NC(=O)[C@H](C)NC(=O)[C@H](CC(=O)O)NC(=O)[C@H](CC(=O)O)NC(=O)C2(CCCC=CCCCOC(=O)N3CC[C@@](C(=O)N[C@@H](Cc4ccsc4)C(=O)N[C@@H](Cc4csc5ccccc45)C(=O)N[C@@H](CCC(N)=O)C(N)=O)(C3)NC(=O)[C@H](CC(N)=O)NC(=O)[C@H](Cc3ccccc3)NC1=O)CCCC=CC[C@]1(CCCN1C(C)=O)C(=O)N[C@@H](CC(=O)O)C(=O)N[C@@H](CC(C)(C)C)C(=O)N2 (stereo partly drawn) [I-894, Ac-PL3-Asp-Npg-B5-Asp-Asp-Ala-[mPEG4]Lys-Phe-Asn-PyrS2-3Thi-BztA-Gln-NH2]	–	> 20000	15	–	1.45	–
CC(=O)N1CCC[C@]12CC=CCCCC1(CCCC=CCCCOC(=O)N3CC[C@@](C(=O)N[C@@H](Cc4ccsc4)C(=O)N[C@@H](Cc4c[nH]c5cc(Cl)ccc45)C(=O)N[C@@H](Cc4c[nH]cn4)C(N)=O)(C3)NC(=O)[C@H](CC(N)=O)NC(=O)[C@H](Cc3ccccc3)NC(=O)[C@H](C)NC(=O)[C@H](C)NC(=O)[C@H](CC(=O)O)NC(=O)[C@H](CC(=O)O)NC1=O)NC(=O)[C@H](CC(C)(C)C)NC(=O)[C@H](CC(=O)O)NC2=O (stereo partly drawn) [I-798, Ac-PL3-Asp-Npg-B5-Asp-Asp-Ala-Ala-Phe-Asn-PyrS2-3Thi-6C1W-His-NH2]	–	–	106	–	2.07	–
C#CCOCCOCCOCCOCCC(=O)NCCCC[C@H](NC(=O)[C@H](CCC(N)=O)NC(=O)[C@H](Cc1csc2ccccc12)NC(=O)[C@H](Cc1ccsc1)NC(=O)[C@]12CCN(C1)C(=O)OCCCC=CCCCC1(CCCC=CC[C@]3(CCCN3C(C)=O)C(=O)N[C@@H](CC(=O)O)C(=O)N[C@@H](CC(C)(C)C)C(=O)N1)C(=O)N[C@@H](CC(=O)O)C(=O)N[C@@H](CC(=O)O)C(=O)N[C@@H](C)C(=O)N[C@@H](C)C(=O)N[C@@H](Cc1ccccc1)C(=O)N[C@@H](CC(N)=O)C(=O)N2)C(N)=O (stereo partly drawn) [I-938, Ac-PL3-Asp-Npg-B5-Asp-Asp-Ala-Ala-Phe-Asn-PyrS2-3Thi-BztA-Gln-[PropynPEG4]Lys-NH2]	–	–	9	–	2.16	–
CC(=O)N1CCC[C@]12CC=CCCCC1(CCCC=CCCCCCC[C@@](C)(C(=O)N[C@@H](Cc3ccccc3)C(=O)N[C@@H](Cc3csc4ccccc34)C(=O)N[C@@H](CCC(N)=O)C(=O)NC(C)(C)C(N)=O)NC(=O)[C@H](CC(N)=O)NC(=O)[C@H](Cc3ccccc3)NC(=O)[C@H](C)NC(=O)[C@H](C)NC(=O)[C@H](CCC(=O)O)NC(=O)[C@H](CC(=O)O)NC1=O)NC(=O)[C@H](CC(C)C)NC(=O)[C@H](CC(=O)O)NC2=O (stereo partly drawn) [I-736, Ac-PL3-Asp-Leu-B5-Asp-Glu-Ala-Ala-Phe-Asn-S8-Phe-BztA-Gln-Aib-NH2]	2.722	–	–	440	–	IC50 ([3]; read-out: FP EC50): 440 nM
CC(=O)N1CCC[C@]12CC=CCCCC1(CCCC=CCCCCCC[C@@](C)(C(=O)N[C@@H](Cc3ccccc3)C(=O)N[C@@H](Cc3csc4ccccc34)C(=O)N[C@@H](CCC(N)=O)C(=O)N[C@@H](C)C(N)=O)NC(=O)[C@H](CC(N)=O)NC(=O)[C@H](Cc3ccccc3)NC(=O)[C@H](C)NC(=O)[C@H](C)NC(=O)[C@H](CCC(=O)O)NC(=O)[C@H](CC(=O)O)NC1=O)NC(=O)[C@H](CC(C)C)NC(=O)[C@H](CC(=O)O)NC2=O (stereo partly drawn) [I-729, Ac-PL3-Asp-Leu-B5-Asp-Glu-Ala-Ala-Phe-Asn-S8-Phe-BztA-Gln-Ala-NH2]	2.366	–	–	56	–	IC50 ([3]; read-out: FP EC50): 56 nM
CC(=O)N1CCC[C@]12CC=CCCCC1(CCCC=CCCCCCC[C@@](C)(C(=O)N[C@@H](Cc3ccccc3)C(=O)N[C@@H](Cc3ccc4ccccc4c3)C(=O)N[C@@H](CCC(N)=O)C(N)=O)NC(=O)[C@H](C(C)C)NC(=O)[C@H](Cc3ccc(F)c(F)c3)NC(=O)[C@H](C)NC(=O)[C@H](C)NC(=O)[C@H](CCC(=O)O)NC(=O)[C@H](CC(=O)O)NC1=O)NC(=O)[C@H](C)NC(=O)[C@H](CC(=O)O)NC2=O (stereo partly drawn) [I-184, Ac-PL3-Asp-Ala-B5-Asp-Glu-Ala-Ala-34FF-Val-S8-Phe-2NapA-Gln-NH2]	–	–	–	–	2.27	IC50 [3, 6]: 3110 nM
CC(=O)N1CCC[C@]12CC=CCCCC1(CCCC=CCCCCCC[C@@](C)(C(=O)N[C@@H](Cc3ccccc3)C(=O)N[C@@H](Cc3csc4ccccc34)C(=O)N[C@@H](CCC(N)=O)C(N)=O)NC(=O)[C@H](CC(N)=O)NC(=O)[C@H](Cc3ccc(C)cc3)NC(=O)[C@H](C)NC(=O)[C@H](C)NC(=O)[C@H](CCC(=O)O)NC(=O)[C@H](CC(=O)O)NC1=O)NC(=O)[C@H](C)NC(=O)[C@H](CC(=O)O)NC2=O (stereo partly drawn) [I-459, Ac-PL3-Asp-Ala-B5-Asp-Glu-Ala-Ala-4MeF-Asn-S8-Phe-BztA-Gln-NH2]	–	–	–	183	2.06	–
CC(=O)N1CCC[C@]12CC=CCCCC1(CCCC=CCCCOC(=O)N3CC[C@@](C(=O)N[C@@H](Cc4ccsc4)C(=O)N[C@@H](Cc4csc5ccccc45)C(=O)N[C@@H](CO)C(N)=O)(C3)NC(=O)[C@H](Cc3ccccc3)NC(=O)[C@H](Cc3ccccc3)NC(=O)[C@H](C)NC(=O)[C@H](C)NC(=O)[C@H](CN(CC(=O)O)CC(F)(F)F)NC(=O)[C@H](CC(=O)O)NC1=O)NC(=O)[C@H](CC(C)(C)C)NC(=O)[C@H](CC(=O)O)NC2=O (stereo partly drawn) [I-962, Ac-PL3-Asp-Npg-B5-Asp-TfeGA-Ala-Ala-Phe-Phe-PyrS2-3Thi-BztA-Ser-NH2]	2.046	–	407	–	–	IC50 [3, 4]: 407 nM
CC(=O)N1CCC[C@]12CC=CCCCC1(CCCC=CCCCCCC[C@@](C)(C(=O)N[C@@H](Cc3ccccc3)C(=O)N[C@@H](Cc3c[nH]c4ccccc34)C(=O)N[C@@H](CCC(N)=O)C(N)=O)NC(=O)[C@H](C(C)C)NC(=O)[C@H](Cc3ccccc3F)NC(=O)[C@H](C)NC(=O)[C@H](C)NC(=O)[C@H](CC(=O)O)NC(=O)[C@H](CC(=O)O)NC1=O)NC(=O)[C@H](C)NC(=O)[C@H](CC(=O)O)NC2=O (stereo partly drawn) [I-317, Ac-PL3-Asp-Ala-B5-Asp-Asp-Ala-Ala-2FF-Val-S8-Phe-Trp-Gln-NH2]	–	–	–	–	2.02	IC50 [3, 6]: 5000 nM
